29 compounds from US9814704B2, “Substituted pyrrolo[2,3-b]pyridines as MLK inhibitors” (The University of Rochester, priority 2008, dated 2017) can be followed below.

Broadly, the IC50 is the concentration at which inhibition is half-maximal.

The target in one assay is MLK3 (Homo sapiens (Human), UniProt Q16584). The assay can be described thus: Radiometric Filter Plate MLK3 Assay. The settings on record: 200 ng (130 nM) MLK3, 1 μM inactive MKK7b, 2 μM cold ATP (Km), 33P ATP, twenty minute incubation; read-out: MK3 IC50. Type of assay: biochemical. How it is done: Radiometric Filter Plate MLK3 Assay
MLK3, sequence (Q16584 whole entry): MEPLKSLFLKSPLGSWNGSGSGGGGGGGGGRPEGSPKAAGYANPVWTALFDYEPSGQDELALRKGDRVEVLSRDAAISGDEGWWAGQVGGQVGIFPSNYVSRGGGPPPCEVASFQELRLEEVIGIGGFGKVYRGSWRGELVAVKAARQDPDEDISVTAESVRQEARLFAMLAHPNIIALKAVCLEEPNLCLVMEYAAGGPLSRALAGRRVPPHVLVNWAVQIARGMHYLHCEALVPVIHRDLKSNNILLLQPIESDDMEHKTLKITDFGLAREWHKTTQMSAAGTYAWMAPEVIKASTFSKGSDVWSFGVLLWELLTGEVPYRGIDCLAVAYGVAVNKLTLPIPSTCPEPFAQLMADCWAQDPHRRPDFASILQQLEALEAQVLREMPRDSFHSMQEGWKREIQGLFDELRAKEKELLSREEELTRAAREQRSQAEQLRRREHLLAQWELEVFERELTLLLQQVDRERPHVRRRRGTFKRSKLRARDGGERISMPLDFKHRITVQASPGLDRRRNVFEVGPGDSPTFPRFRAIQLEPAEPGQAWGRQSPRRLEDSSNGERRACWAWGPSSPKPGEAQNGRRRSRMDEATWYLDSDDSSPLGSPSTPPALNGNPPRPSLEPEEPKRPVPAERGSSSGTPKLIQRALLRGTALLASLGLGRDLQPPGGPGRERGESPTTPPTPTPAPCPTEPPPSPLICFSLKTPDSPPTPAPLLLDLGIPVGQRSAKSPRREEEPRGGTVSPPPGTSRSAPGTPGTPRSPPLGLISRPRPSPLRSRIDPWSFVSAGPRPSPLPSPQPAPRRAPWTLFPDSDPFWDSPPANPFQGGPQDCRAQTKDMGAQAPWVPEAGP
After a twenty minute incubation, the reactions were washed through filter plates and read on a scintillation counter. Results are shown in Table 4 below, in which +++ indicates ≦0.1 μM, ++ indicates >0.1 μM and ≦1 μM, and + indicates >1 μM.
Turning to `COc1cc(OC)cc(-c2cnc3[nH]c(=O)n(-c4ccc5[nH]ccc5c4)c3n2)c1` [Example 65, 6-(3,5-dimethoxyphenyl)-1-(1H-indol-5-yl)-1H-imidazo[4,5-b]pyrazin-2(3H)-one], the IC50 was greater than 1000 nM.

Turning to `CN1CCN(c2cc(-c3cnc4[nH]c(=O)n(-c5ccc6[nH]ccc6c5)c4n3)ccn2)CC1` [Example 66, 1-(1H-indol-5-yl)-6-(2-(4-methylpiperazin-1-yl)pyridin-4-yl)-1H-imidazo[4,5-b]pyrazin-2(3H)-one], the IC50 is greater than 1000 nM. The same measure, in the same setting: as for `COc1ccc(-n2c(=O)[nH]c3ncc(-c4ccc(OC)c(OC)c4)nc32)cc1` [Example 69, 6-(3,4-dimethoxyphenyl)-1-(4-methoxyphenyl)-1H-imidazo[4,5-b]pyrazin-2(3H)-one], the figure is greater than 1000 nM; as for `COc1ccc(-n2c(=O)[nH]c3ncc(-c4ccc(O)cc4)nc32)cc1` [Example 70, 6-(4-hydroxyphenyl)-1-(4-methoxyphenyl)-1H-imidazo[4,5-b]pyrazin-2(3H)-one], greater than 1000 nM. Same read-out and setting: as for `COc1ccc(-n2c(=O)[nH]c3ncc(-c4ccncc4)nc32)cc1` [Example 71, 1-(4-methoxyphenyl)-6-(pyridin-4-yl)-1H-imidazo[4,5-b]pyrazin-2(3H)-one], the figure is greater than 1000 nM; as for `COc1cc(-c2cnc3[nH]c(=O)n(-c4ccc5[nH]c(C)cc5c4)c3n2)cc(OC)c1OC` [Example 72, 1-(2-methyl-1H-indol-5-yl)-6-(3,4,5-trimethoxyphenyl)-1H-imidazo[4,5-b]pyrazin-2(3H)-one], less than 100 nM; as for `Cc1cc2cc(-n3c(=O)[nH]c4ncc(-c5cc(Cl)cc(Cl)c5)nc43)ccc2[nH]1` [Example 73, 6-(3,5-dichlorophenyl)-1-(2-methyl-1H-indol-5-yl)-1H-imidazo[4,5-b]pyrazin-2(3H)-one], greater than 1000 nM. As for `COc1cc(-c2cnc3[nH]c(=O)n(C4CCCC4)c3n2)cc(OC)c1OC` [Example 74, 1-cyclopentyl-6-(3,4,5-trimethoxyphenyl)-1H-imidazo[4,5-b]pyrazin-2(3H)-one], the IC50 is less than 100 nM.

Regarding `COc1ccc(-c2cnc3[nH]c(=O)n(C4CCCC4)c3n2)cc1OC` [Example 75, 1-cyclopentyl-6-(3,4-dimethoxyphenyl)-1H-imidazo[4,5-b]pyrazin-2(3H)-one], the IC50 is greater than 1000 nM. The same measure, in the same setting: the result for `O=c1[nH]c2ncc(-c3ccncc3)nc2n1C1CCCC1` [Example 77, 1-cyclopentyl-6-(pyridin-4-yl)-1H-imidazo[4,5-b]pyrazin-2(3H)-one] reads greater than 1000 nM; that for `O=c1[nH]c2ncc(-c3cc(Cl)cc(Cl)c3)nc2n1CC1CC1` [Example 80, 1-(cyclopropylmethyl)-6-(3,5-dichlorophenyl)-1H-imidazo[4,5-b]pyrazin-2(3H)-one], greater than 1000 nM. On the same count and under the same terms, the result for `O=c1[nH]c2ncc(-c3ccc(O)cc3)nc2n1CC1CC1` [Example 81, 1-(cyclopropylmethyl)-6-(4-hydroxyphenyl)-1H-imidazo[4,5-b]pyrazin-2(3H)-one] reads greater than 1000 nM; that for `O=c1[nH]c2ncc(-c3ccncc3)nc2n1CC1CC1` [Example 82, 1-(cyclopropylmethyl)-6-(pyridin-4-yl)-1H-imidazo[4,5-b]pyrazin-2(3H)-one], greater than 1000 nM.

For `Cc1cc2cc(-n3c(=O)[nH]c4ncc(-c5ccncc5)nc43)ccc2[nH]1` [Example 85, 1-(2-methyl-1H-indol-5-yl)-6-(pyridin-4-yl)-1H-imidazo[4,5-b]pyrazin-2(3H)-one], the IC50 is greater than 1000 nM. For the compound `O=c1[nH]c2ncc(-c3ccc(N4CCOCC4)cc3)nc2n1CC1CC1` [Example 86, 1-(cyclopropylmethyl)-6-(4-morpholinophenyl)-1H-imidazo[4,5-b]pyrazin-2(3H)-one], the IC50 is greater than 1000 nM.

`COc1ccc(-c2cnc3[nH]c(=O)n(-c4ccc5[nH]ncc5c4)c3n2)cc1OC` [Example 87, 6-(3,4-dimethoxyphenyl)-1-(1H-indazol-5-yl)-1H-imidazo[4,5-b]pyrazin-2(3H)-one]: the IC50 was greater than 1000 nM.

`O=c1[nH]c2ncc(-c3ccncc3)nc2n1-c1ccc2[nH]ncc2c1` [Example 88, 1-(1H-indazol-5-yl)-6-(pyridin-4-yl)-1H-imidazo[4,5-b]pyrazin-2(3H)-one]: the IC50 was greater than 1000 nM. Same read-out and setting: the result for `O=c1[nH]c2ncc(-c3ccc(N4CCOCC4)cc3)nc2n1-c1ccc2[nH]ncc2c1` [Example 89, 1-(1H-indazol-5-yl)-6-(4-morpholinophenyl)-1H-imidazo[4,5-b]pyrazin-2(3H)-one] reads greater than 1000 nM. Still for that read-out and setting: as for `O=c1[nH]c2ncc(-c3ccc(O)cc3)nc2n1-c1ccc2cn[nH]c2c1` [Example 92, 6-(4-hydroxyphenyl)-1-(1H-indazol-6-yl)-1H-imidazo[4,5-b]pyrazin-2(3H)-one], the figure is greater than 1000 nM.

The assay is the same for the next values; noted with them: read-out: MK3 IC50.
`O=c1[nH]c2ncc(-c3ccc4c(c3)OCCO4)nc2n1-c1ccc2[nH]ccc2c1` [Example 63, 6-(2,3-dihydrobenzo[b][1,4]dioxin-6-yl)-1-(1H-indol-5-yl)-1H-imidazo[4,5-b]pyrazin-2(3H)-one]: the IC50 is 100 to 1000 nM. As for `COc1cc(-c2cnc3[nH]c(=O)n(-c4ccc5[nH]ccc5c4)c3n2)ccc1OCCN1CCNCC1` [Example 67, 1-(1H-indol-5-yl)-6-(3-methoxy-4-(2-(piperazin-1-yl)ethoxy)phenyl)-1H-imidazo[4,5-b]pyrazin-2(3H)-one], the half-inhibitory concentration (IC50) was 100 to 1000 nM.

For the compound `COc1ccc(-n2c(=O)[nH]c3ncc(-c4cc(OC)c(OC)c(OC)c4)nc32)cc1` [Example 68, 1-(4-methoxyphenyl)-6-(3,4,5-trimethoxyphenyl)-1H-imidazo[4,5-b]pyrazin-2(3H)-one], the IC50 was in the range of 100 to 1000 nM. The same measure, in the same setting: as for `O=c1[nH]c2ncc(-c3ccc(O)cc3)nc2n1C1CCCC1` [Example 76, 1-cyclopentyl-6-(4-hydroxyphenyl)-1H-imidazo[4,5-b]pyrazin-2(3H)-one], the figure is 100 to 1000 nM. The same measure, in the same setting: the result for `COc1cc(-c2cnc3[nH]c(=O)n(CC4CC4)c3n2)cc(OC)c1OC` [Example 78, 1-(cyclopropylmethyl)-6-(3,4,5-trimethoxyphenyl)-1H-imidazo[4,5-b]pyrazin-2(3H)-one] reads 100 to 1000 nM; that for `COc1ccc(-c2cnc3[nH]c(=O)n(CC4CC4)c3n2)cc1OC` [Example 79, 1-(cyclopropylmethyl)-6-(3,4-dimethoxyphenyl)-1H-imidazo[4,5-b]pyrazin-2(3H)-one], 100 to 1000 nM. Consider `Cc1cc2cc(-n3c(=O)[nH]c4ncc(-c5ccc(O)cc5)nc43)ccc2[nH]1` [Example 84, 6-(4-hydroxyphenyl)-1-(2-methyl-1H-indol-5-yl)-1H-imidazo[4,5-b]pyrazin-2(3H)-one], for which the IC50 fell in the range of 100 to 1000 nM.

In the case of `COc1cc(-c2cnc3[nH]c(=O)n(-c4ccc5cn[nH]c5c4)c3n2)cc(OC)c1OC` [Example 90, 1-(1H-indazol-6-yl)-6-(3,4,5-trimethoxyphenyl)-1H-imidazo[4,5-b]pyrazin-2(3H)-one], the IC50 was 100 to 1000 nM. Same read-out and setting: as for `COc1ccc(-c2cnc3[nH]c(=O)n(-c4ccc5cn[nH]c5c4)c3n2)cc1OC` [Example 91, 6-(3,4-dimethoxyphenyl)-1-(1H-indazol-6-yl)-1H-imidazo[4,5-b]pyrazin-2(3H)-one], the figure is 100 to 1000 nM. Take `O=c1[nH]c2ncc(-c3ccncc3)nc2n1-c1ccc2cn[nH]c2c1` [Example 93, 1-(1H-indazol-6-yl)-6-(pyridin-4-yl)-1H-imidazo[4,5-b]pyrazin-2(3H)-one]: the half-inhibitory concentration (IC50) was 100 to 1000 nM.
